In paper PMC4666608, “Metabolic Profiling of Chicken Embryos Exposed to Perfluorooctanoic Acid (PFOA) and Agonists to Peroxisome Proliferator-Activated Receptors” (PLoS ONE, 2015):
Marks after values point to notes of the source that are not given here.

Test system: chicken embryos
Experiment: Metabolic profiling of blood plasma (GC-MS, LC-MS, OPLS-DA)
Type: in vivo, Gallus gallus domesticus
Conditions: LC
Procedure: Controls were injected with 20 μL vehicle only (DMSO).
Plasma was collected and stored at -70°C.
Metabolites in allantoic fluid and blood plasma were analyzed using gas chromatography-mass spectrometry (GC-MS) and liquid chromatography-mass spectrometry (LC-MS) as described in S1 Methods. Prior to GC-MS and LC-MS analysis, allantoic fluid (100 μL) and blood plasma (50 μL) were extracted. To each sample, 900 μL (allantoic fluid) or 450 μL (blood plasma) of extraction buffer (90/10 v/v methanol:water) including all internal standards were added. Standards for GC-MS were proline, succinic acid, glutamic acid, salicylic acid, alpha-ketoglutarate, putrescine, myristic acid, hexadecanoic acid, cholesterol, and sucrose. Standards for LC-MS were Val-Tyr-Val, Leu-enkephalin, sulfadimethoxine and reserpine. Samples were homogenized by shaking in a bead mill at a frequency of 30 Hz for 3 minutes and proteins were precipitated at +4°C on ice. The samples were centrifuged at +4°C, 14000 rpm, for 10 min. Then, 200 μL supernatant was transferred to a GC microvial and 200 μL was transferred to an LC microvial, and solvents were evaporated. Samples from the four replicate experiments were analyzed using in chronological order and within each replicate experiment the run order of the individual samples was randomized.
Multivariate statistical analyses of metabolite profiles were performed using the software package SIMCA-P version 13.0 (Umetrics, Umeå, Sweden). Data was centered and scaled to variance 1 (UV scaling) prior to modelling. To reduce unintended systematic variation caused by sample processing and instrument drift, GC-MS and LC-MS metabolite amounts (expressed as the area under the chromatographic peak) were normalized by Orthogonal Partial Least Squares analysis (O2PLS) prior to multivariate data analysis. O2PLS finds common (predictive) and unique (orthogonal) variation in two data matrices. If applied to find the common variation between the data matrix containing the measured metabolite concentrations and a matrix containing only the internal standards, the only common (predictive) variation expected is due to the unintended systematic variation. By deleting the contribution of the predictive latent variables, that variation can be removed from the data. Models obtained after this normalization contain in general less latent variables, and this simplification helps when deciding on the number of latent variables to be used. Following normalization, GC-MS and LC-MS data were analyzed together. Initially, a global Principal Component Analysis (PCA) was performed to get an overview of groups and trends and to identify outliers. Projections to latent structures by means of Orthogonal Partial Least Squares Discriminant Analysis (OPLS-DA) was used to model the relationship between the X-matrix (metabolite concentrations) and the Y matrix (class, i.e. exposure group or sex), and to find x-variables that were related to class belonging. OPLS-DA is a supervised prediction and regression method that rotates the projection plane to find the maximum covariance between the data and the class assignment. All groups were first analyzed together in a 5-class OPLS-DA and then each exposure group was analyzed against the control group in a 2-class OPLS-DA. Sex differences were analyzed both using the whole data set and in each group separately using 2-class OPLS-DA, with females and males as the two classes. Only variables with 80% or more nonzero values were included in the statistical models. […] The validity of each model was also checked using CV-ANOVA (ANOVA of the cross-validated residuals). A significance level of p < 0.05 was used. For each model, R ^2 X, R ^2 Y and Q ^2 values were calculated, where R ^2 X is a measure of the fraction of x variation modeled in the extracted latent variables, R ^2 Y is a measure of the fraction of y variation modeled and Q ^2 is an estimate of the predictive ability of the model and is calculated by cross-validation. […]

O=C(O)C(F)(F)C(F)(F)C(F)(F)C(F)(F)C(F)(F)C(F)(F)C(F)(F)F [PFOA, perfluorooctanoic acid]
2.0***: Mean concentration relative to control, feature 307.2147@7.5065937 (C18H29NO3) (PFOA 250)
1.4*: Mean concentration relative to control, feature 339.3861@9.528681 (PFOA 250)
1: Mean concentration relative to control, feature 755.5465@10.73882 (PFOA 50) | Mean concentration relative to control, feature 1262.4865@1.947075 (PFOA 50) | Mean concentration relative to control, feature 1591.051@5.0189176 (PFOA 50) | Mean concentration relative to control, feature 1591.388@5.0202384 (PFOA 50) | Mean concentration relative to control, feature 1591.7203@5.018071 (PFOA 50) | Mean concentration relative to control, feature 118.0284@2.480333 (C4H6O4) (PFOA 250) | Mean concentration relative to control, feature 122.0486@0.675613 (PFOA 250) | Mean concentration relative to control, feature 146.0362@0.7772238 (PFOA 250) | Mean concentration relative to control, feature 164.0449@0.7694838 (PFOA 250) | Mean concentration relative to control, feature 226.0721@1.9460537 (PFOA 250) | Mean concentration relative to control, feature 278.0939@1.3354088 (PFOA 250) | Mean concentration relative to control, feature 293.0903@1.5739433 (PFOA 250) | Mean concentration relative to control, feature 348.0675@1.5761927 (PFOA 250) | Mean concentration relative to control, feature 355.9454@0.68034226 (PFOA 250) | Mean concentration relative to control, feature 366.1431@1.4228548 (PFOA 250) | Mean concentration relative to control, feature 375.3108@8.995564 (PFOA 250) | Mean concentration relative to control, feature 389.2686@9.046645 (PFOA 250) | Mean concentration relative to control, feature 407.0999@1.585909 (PFOA 250) | Mean concentration relative to control, feature 412.135@2.4779084 (C17H24N4O6S) (PFOA 250) | Mean concentration relative to control, feature 509.1184@2.4798179 (PFOA 250) | Mean concentration relative to control, feature 525.2855@8.361063 (PFOA 250) | Mean concentration relative to control, feature 558.4095@9.459733 (PFOA 250) | Mean concentration relative to control, feature 634.2403@1.9467853 (PFOA 250) | Mean concentration relative to control, feature 1262.4865@1.947075 (PFOA 250) | Mean concentration relative to control, feature 1591.051@5.0189176 (PFOA 250)
1.4: Mean concentration relative to control, feature 159.0686@1.1608156 (PFOA 250)
1.0: Mean concentration relative to control, feature 659.5483@11.4915495 (PFOA 50) | Mean concentration relative to control, feature 875.4661@10.5661745 (PFOA 50) | Mean concentration relative to control, feature 215.047@1.6260729 (C5H14NO6P) (PFOA 250) | Mean concentration relative to control, feature 362.1467@0.8461036 (PFOA 250) | Mean concentration relative to control, feature 565.1902@0.7699907 (PFOA 250) | Mean concentration relative to control, feature 875.4661@10.5661745 (PFOA 250) | Mean concentration relative to control, feature 1316.4163@1.9465046 (PFOA 250)
0.7***: Mean concentration relative to control, feature 342.2883@7.526812 (PFOA 250)
0.8: Mean concentration relative to control, feature 489.1508@8.562614 (PFOA 250)
1.1*: Mean concentration relative to control, feature 1316.4163@1.9465046 (PFOA 50) | Mean concentration relative to control, feature 126.0428@1.2278157 (Thymine) (PFOA 250) | Mean concentration relative to control, feature 644.1614@0.7647065 (PFOA 250)
0.7*: Mean concentration relative to control, feature 260.0508@0.69984084 (PFOA 250) | Mean concentration relative to control, feature 444.3607@10.33052 (PFOA 250)
1.1: Mean concentration relative to control, feature 698.2598@1.3599721 (PFOA 50) | Mean concentration relative to control, feature 700.5514@10.765638 (PFOA 50) | Mean concentration relative to control, feature 202.1024@5.0303197 (C8H14N2O4) (PFOA 250) | Mean concentration relative to control, feature 233.1265@2.535991 (PFOA 250) | Mean concentration relative to control, feature 373.296@9.044806 (PFOA 250) | Mean concentration relative to control, feature 471.9819@0.685074 (PFOA 250) | Mean concentration relative to control, feature 545.2492@8.463657 (PFOA 250) | Mean concentration relative to control, feature 577.2747@9.25652 (PFOA 250) | Mean concentration relative to control, feature 581.1643@0.77029324 (PFOA 250) | Mean concentration relative to control, feature 698.2598@1.3599721 (PFOA 250) | Mean concentration relative to control, feature 700.5514@10.765638 (PFOA 250)
1.2: Mean concentration relative to control, feature 827.5078@8.831237 (PFOA 50) | Mean concentration relative to control, feature 755.5465@10.73882 (PFOA 250) | Mean concentration relative to control, feature 827.5078@8.831237 (PFOA 250)
1.2**: Mean concentration relative to control, feature 213.2458@7.4887733 (PFOA 250) | Mean concentration relative to control, feature 310.178@7.5343466 (PFOA 250)
0.9: Mean concentration relative to control, feature 203.1162@0.5130696 (PFOA 250) | Mean concentration relative to control, feature 231.0174@1.6241412 (PFOA 250) | Mean concentration relative to control, feature 250.1317@2.1334834 (PFOA 250) | Mean concentration relative to control, feature 276.0173@1.6283482 (PFOA 250) | Mean concentration relative to control, feature 659.5483@11.4915495 (PFOA 250) | Mean concentration relative to control, feature 1591.388@5.0202384 (PFOA 250) | Mean concentration relative to control, feature 1591.7203@5.018071 (PFOA 250)
